# Test results: ChEMBL document CHEMBL5316269, “Rational Design of a New RXR Agonist Scaffold Enabling Single-Subtype Preference for RXRα, RXRβ, and RXRγ” (J Med Chem, 2023)
# Experiments:
# [1] = target: T1, Retinoic acid receptor RXR-alpha (Homo sapiens, UniProt P19793); experiment: Agonist activity at human GAL4-fused RXRalpha LBD expressed in human HEK293T cells cotransfected with pFR-Luc and pRL-SV40 assessed as increase in luciferase activity incubated for 16 hrs by Dual-Glo luciferase assay; assay type: cell-based
# T1 sequence (P19793 whole entry): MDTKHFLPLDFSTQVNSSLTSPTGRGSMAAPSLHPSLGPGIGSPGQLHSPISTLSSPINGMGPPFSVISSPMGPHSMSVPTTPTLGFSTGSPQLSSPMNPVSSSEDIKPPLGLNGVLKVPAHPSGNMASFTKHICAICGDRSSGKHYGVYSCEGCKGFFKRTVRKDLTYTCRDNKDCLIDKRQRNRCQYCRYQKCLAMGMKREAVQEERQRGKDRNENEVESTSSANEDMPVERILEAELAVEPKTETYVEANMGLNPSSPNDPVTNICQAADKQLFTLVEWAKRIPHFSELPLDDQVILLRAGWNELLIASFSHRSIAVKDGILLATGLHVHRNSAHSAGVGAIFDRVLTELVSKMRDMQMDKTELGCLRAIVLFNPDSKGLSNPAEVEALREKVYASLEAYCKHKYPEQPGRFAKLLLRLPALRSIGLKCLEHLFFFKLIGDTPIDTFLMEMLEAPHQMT
# [2] = target: T2, Retinoic acid receptor RXR-gamma (Homo sapiens, UniProt P48443); experiment: Agonist activity at human GAL4-fused RXRgamma LBD expressed in human HEK293T cells cotransfected with pFR-Luc and pRL-SV40 assessed as increase in luciferase activity incubated for 16 hrs by Dual-Glo luciferase assay; assay type: cell-based
# T2 sequence (P48443 whole entry): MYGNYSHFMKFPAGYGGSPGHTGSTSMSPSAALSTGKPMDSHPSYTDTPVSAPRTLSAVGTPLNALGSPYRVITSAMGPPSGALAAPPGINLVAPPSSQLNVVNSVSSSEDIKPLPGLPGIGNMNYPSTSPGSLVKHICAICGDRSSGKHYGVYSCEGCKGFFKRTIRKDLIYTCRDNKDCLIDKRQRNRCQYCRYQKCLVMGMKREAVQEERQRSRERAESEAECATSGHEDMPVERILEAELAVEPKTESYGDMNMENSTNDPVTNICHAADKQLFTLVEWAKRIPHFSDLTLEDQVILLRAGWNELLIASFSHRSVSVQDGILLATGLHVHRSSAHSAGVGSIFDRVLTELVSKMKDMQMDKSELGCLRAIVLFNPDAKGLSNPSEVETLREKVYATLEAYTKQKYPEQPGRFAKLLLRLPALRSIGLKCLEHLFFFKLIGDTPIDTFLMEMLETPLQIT
# [3] = target: T3, Retinoic acid receptor RXR-beta (Homo sapiens, UniProt P28702); experiment: Agonist activity at human GAL4-fused RXRbeta LBD expressed in human HEK293T cells cotransfected with pFR-Luc and pRL-SV40 assessed as increase in luciferase activity incubated for 16 hrs by Dual-Glo luciferase assay; assay type: cell-based
# T3 sequence (P28702 whole entry): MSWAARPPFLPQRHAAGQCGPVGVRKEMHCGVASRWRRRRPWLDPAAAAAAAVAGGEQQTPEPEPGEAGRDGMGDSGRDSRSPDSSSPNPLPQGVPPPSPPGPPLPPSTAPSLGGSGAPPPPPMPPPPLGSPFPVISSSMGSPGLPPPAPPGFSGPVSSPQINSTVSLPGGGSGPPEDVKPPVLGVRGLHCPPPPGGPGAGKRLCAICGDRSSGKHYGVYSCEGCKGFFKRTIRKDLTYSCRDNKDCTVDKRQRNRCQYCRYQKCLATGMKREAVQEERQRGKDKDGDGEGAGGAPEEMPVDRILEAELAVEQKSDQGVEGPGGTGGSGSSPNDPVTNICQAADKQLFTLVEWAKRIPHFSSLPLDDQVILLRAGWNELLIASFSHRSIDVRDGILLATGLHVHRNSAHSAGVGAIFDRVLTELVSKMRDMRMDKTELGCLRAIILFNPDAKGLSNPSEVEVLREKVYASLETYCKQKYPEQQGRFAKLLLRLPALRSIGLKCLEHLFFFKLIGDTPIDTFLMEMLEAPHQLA
# HEK-293T [4] = experiment: Cytotoxicity in human HEK293T cells coexpressing GAL4-fused RXRbeta LBD, pFR-Luc and pRL-SV40 assessed as reduction in cell viability at > 10 uM incubated for 16 hrs by Dual-Glo luciferase assay; assay type: toxicity, cell-based
# HEK-293T [5] = experiment: Cytotoxicity in human HEK293T cells coexpressing GAL4-fused RXRgamma LBD, pFR-Luc and pRL-SV40 assessed as reduction in cell viability at > 10 uM incubated for 16 hrs by Dual-Glo luciferase assay; assay type: toxicity, cell-based
# HEK-293T [6] = experiment: Cytotoxicity in human HEK293T cells coexpressing GAL4-fused RXRalpha LBD, pFR-Luc and pRL-SV40 assessed as reduction in cell viability at > 10 uM incubated for 16 hrs by Dual-Glo luciferase assay; assay type: toxicity, cell-based
# CAR (NR1I3) [7] = target: T4, CAR (NR1I3) (Homo sapiens, UniProt Q14994); experiment: Agonist activity at human GAL4-fused CAR LBD expressed in human HEK293T cells cotransfected with pFR-Luc and pRL-SV40 assessed as increase in luciferase activity at 1 uM incubated for 16 hrs by Dual-Glo luciferase assay relative to control; assay type: cell-based; settings: HEK293T cells expressing GAL4-fused CAR LBD, read-out: Activity
# T4 sequence (Q14994 whole entry): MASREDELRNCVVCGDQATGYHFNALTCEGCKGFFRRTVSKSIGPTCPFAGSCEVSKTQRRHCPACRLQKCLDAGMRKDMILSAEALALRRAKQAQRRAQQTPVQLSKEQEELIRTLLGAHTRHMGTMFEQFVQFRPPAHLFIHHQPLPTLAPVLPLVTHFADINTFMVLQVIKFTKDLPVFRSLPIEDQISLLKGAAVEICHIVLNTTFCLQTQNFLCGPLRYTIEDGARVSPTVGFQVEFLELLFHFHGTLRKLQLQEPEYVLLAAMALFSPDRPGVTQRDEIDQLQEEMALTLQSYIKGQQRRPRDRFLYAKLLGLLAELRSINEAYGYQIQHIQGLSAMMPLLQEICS
# PXR (NR1I2) [8] = target: T5, PXR (NR1I2) (Homo sapiens, UniProt O75469); experiment: Agonist activity at human GAL4-fused PXR LBD expressed in human HEK293T cells cotransfected with pFR-Luc and pRL-SV40 assessed as increase in luciferase activity at 1 uM incubated for 16 hrs by Dual-Glo luciferase assay relative to control; assay type: cell-based; settings: HEK293T cells expressing GAL4-fused PXR LBD, read-out: Activity
# T5 sequence (O75469 whole entry): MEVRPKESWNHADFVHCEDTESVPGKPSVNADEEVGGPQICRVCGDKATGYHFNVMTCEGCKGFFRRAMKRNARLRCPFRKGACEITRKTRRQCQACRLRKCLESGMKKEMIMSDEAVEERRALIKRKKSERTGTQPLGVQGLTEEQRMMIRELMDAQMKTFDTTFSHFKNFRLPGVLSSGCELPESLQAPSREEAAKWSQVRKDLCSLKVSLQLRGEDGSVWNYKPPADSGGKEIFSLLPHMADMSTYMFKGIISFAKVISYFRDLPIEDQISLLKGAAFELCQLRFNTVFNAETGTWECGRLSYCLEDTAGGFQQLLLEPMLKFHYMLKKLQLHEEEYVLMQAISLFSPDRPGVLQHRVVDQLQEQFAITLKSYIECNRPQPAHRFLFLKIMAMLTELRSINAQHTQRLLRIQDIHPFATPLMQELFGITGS
# [9] = target: T1, Retinoic acid receptor RXR-alpha; experiment: Binding affinity to human RXRalpha LBD and measured for 180 sec by ITC analysis
# [10] = target: T2, Retinoic acid receptor RXR-gamma; experiment: Binding affinity to human RXRgamma LBD and measured for 180 sec by ITC analysis
# PXR (NR1I2) [11] = target: T5, PXR (NR1I2); experiment: Agonist activity at human GAL4-fused PXR LBD expressed in human HEK293T cells cotransfected with pFR-Luc and pRL-SV40 assessed as increase in luciferase activity at 30 uM incubated for 16 hrs by Dual-Glo luciferase assay relative to control; assay type: cell-based; settings: HEK293T cells expressing GAL4-fused PXR LBD, read-out: Activity
# CAR (NR1I3) [12] = target: T4, CAR (NR1I3); experiment: Agonist activity at human GAL4-fused CAR LBD expressed in human HEK293T cells cotransfected with pFR-Luc and pRL-SV40 assessed as increase in luciferase activity at 30 uM incubated for 16 hrs by Dual-Glo luciferase assay relative to control; assay type: cell-based; settings: HEK293T cells expressing GAL4-fused CAR LBD, read-out: Activity
SMILES,EC50 [1] [µM],EC50 [2] [µM],EC50 [3] [µM],other results
O=C(O)c1cccc(COc2cccc3c2CCC3)c1,7,–,–,–
Cc1ccc(OCc2ccc(C(=O)O)cc2)c2c1CCC2,–,5,–,–
Cc1ccc(OCc2ccc(C(=O)O)c(F)c2)c2c1CCC2,–,11,2.9,–
Cc1ccc(OCc2ccc(CCC(=O)O)cc2)c2c1CCC2,–,–,1.1,–
Cc1ccc(COc2ccc(C)c3c2CCC3)cc1CC(=O)O,–,–,–,Activity (HEK-293T [4]): Toxic; Activity (HEK-293T [5]): Toxic; Activity (HEK-293T [6]): Toxic
Cc1ccc(COc2cccc3c2CCC3)cc1CC(=O)O,–,–,–,Activity (HEK-293T [4]): Toxic; Activity (HEK-293T [5]): Toxic; Activity (HEK-293T [6]): Toxic
Cc1cc(COc2cccc3c2CCC3)ccc1CC(=O)O,43,–,43,–
O=C(O)c1ccc(COc2cccc3c2CCC3)cc1,1.2,–,1.5,–
Cc1ccc(OCc2ccc(CC(=O)O)cc2)c2c1CCC2,2.4,–,2.5,–
Cc1cc(COc2cccc3c2CCC3)ccc1C(=O)O,23,–,–,–
O=C(O)CCc1ccc(COc2cccc3c2CCC3)cc1,0.6,2.6,–,–
Cc1cc(COc2ccc(C)c3c2CCC3)ccc1CCC(=O)O,0.36,–,–,"activity at 16 h, 1 µM (CAR (NR1I3) [7]): 6%; activity at 16 h, 1 µM (PXR (NR1I2) [8]): 12%; Kd [9]: 0.2 µM"
CN(Cc1ccc(C(=O)O)cc1)c1cccc2c1CCC2,4.1,14,–,–
O=C(O)c1ccc(COc2cccc3c2CCC3)cc1F,0.8,–,–,–
O=C(O)c1ccc(CNc2cccc3c2CCC3)cc1,3.1,13,–,–
O=C(O)CCc1ccc(COc2cccc3c2CCC3)cc1F,2.2,11,2.8,–
Cc1ccc(OCc2ccc(CCC(=O)O)c(Cl)c2)c2c1CCC2,7,10.6,8,–
Cc1ccc(OCc2ccc(CCC(=O)O)c(F)c2)c2c1CCC2,–,14,–,"Kd [10]: 6 µM; activity at 16 h, 30 µM (PXR (NR1I2) [11]): 15%; activity at 16 h, 30 µM (CAR (NR1I3) [12]): 9%"
CC1=C2[C@H](/C=C(\C)C(=O)O)CC[C@@H](C)[C@H]2CC1 [VALERENIC ACID],–,–,5,–
